# Source: patent US12070483B2, “Compositions and methods for treatment of acute lung injury” (THE TRUSTEES OF THE UNIVERSITY OF PENNSYLVANIA, priority 2018, dated 2024)
# What was measured:
# [1] = test system: C57Bl/6 mice, LPS-mediated lung injury; assay: Acute lung injury after intratracheal LPS (5 μg/g), lungs evaluated at 24 h; format: in vivo, mouse; details: for lung injury, peptide administered along with LPS (0 time): evaluated at 24 hours after LPS; for lung injury, peptide administered at 12-16 hours after LPS: sacrifice @ 24 hours
# Protocol: The IT model of acute lung injury (ALI) as shown in Table 9 was used to test the effects of PIP-2. […] IV administration of PIP-2 was used to avoid a second ‘assault’ on the trachea. Mice were sacrificed at 24 hours and lungs were evaluated for injury as described in Table 9. Protection (%) against lung injury was calculated as [1−(injury with PIP-2−control)/(LPS alone−control)]. Results are mean±SE for n=4. *P<0.01 vs control. ^†P<0.01 vs no PIP, 24 hours.
# To study the effect of PIP-2 administration on lung injury, mice were treated with LPS (5 μg/g body weight) given IT. […] PIP-2 (2 μg/g body weight in liposomes) was administered at 0, 12, or 16 h after LPS. We have shown previously that this dose of PIP-2 can inhibit lung aiPLA2 activity by ˜90% for at least 24 h. PIP-2 was given IT at time zero and IV at 12 or 16 h in order to avoid excessive damage to the trachea. Animals were sacrificed and lungs were examined at 24 h after LPS. All indices of lung injury, reflecting lung inflammation, alveolar-capillary barrier dysfunction, lung fluid accumulation, and tissue oxidative stress, were elevated in LPS-treated mice as compared to control (p<0.05). […] Since lung injury was present in lungs at 12 and 16 h after LPS, the normal values at 24 h in lungs from LPS treated mice given PIP-2 at 12 or 16 h can only mean that lungs were able to recover fully from their injury during the 8 to 12 h interval between the administration of PIP-2 and examination of the lungs.
# NADPH oxidase (NOX2) = assay: H2O2 production (Amplex red) of perfused lung 5 min after PIP-2 in saline or liposomes; format: in vivo, mouse; details: IT or IV
# Protocol: FIGS. 1A and 1B: Wild type C57Bl/6 mice at age 8-10 weeks were injected with 2 ug/g body wt of PIP-2 either through an intratracheal catheter (IT) or intravenously (IV). The injected peptide was dissolved in saline or was incorporated into unilamellar liposomes consisting of dipalmitoyl phosphatidylcholine (DPPC), egg phosphatidylcholine (PC), phosphatidylglycerol (PG), and cholesterol (molar ratio of lipids, 50:25:10:15). […] Mice were sacrificed after 5 min, lungs were perfused until cleared of blood, and then subjected to recirculating perfusion under temperature-controlled (37° C.) conditions in the presence of the fluorescent indicator Amplex red plus horseradish peroxidase (HRP) in order to monitor the oxidation of Amplex red by H2O2. The fluorescence of aliquots of perfusate was measured at the indicated times and expressed as arbitrary fluorescence units (AFU). The increasing fluorescence with time of perfusion indicates the production of H2O2 reflecting the activation of cellular NADPH oxidase (NOX2).
# The lungs were removed from mice and studied in an isolated system. The slope of the lines indicates the production of oxidants (H2O2).
# aiPLA2 activity = biological target: T1, aiPLA2 activity (Homo sapiens, UniProt P30041); assay: Inhibitory activity of PIP-2 after storage as dry powder at room temp.; format: biochemical; details: for aiPLA2 Activity: PIP-2 stored as dry powder at room temp.
# T1 sequence (P30041 1-224): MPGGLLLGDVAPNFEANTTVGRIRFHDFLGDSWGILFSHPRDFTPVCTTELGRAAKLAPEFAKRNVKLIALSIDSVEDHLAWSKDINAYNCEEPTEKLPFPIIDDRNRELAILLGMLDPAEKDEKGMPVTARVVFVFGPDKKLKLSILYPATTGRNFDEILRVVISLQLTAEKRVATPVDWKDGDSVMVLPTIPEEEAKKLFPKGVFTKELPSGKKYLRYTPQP
# Protocol: aiPLA2 activity was measured at intervals to determine how long the peptide could maintain its efficacy as an inhibitor of aiPLA2 activity. The peptide was stable for the 4 months of observation.
# recombinant hPrdx6 = biological target: T2, recombinant hPrdx6 (Homo sapiens, UniProt P30041); assay: aiPLA2 activity of recombinant human Prdx6 in presence of peptide; format: biochemical; details: for aiPLA2 activity of human recombinant protein: Table 2, hPrdx6 only 92.0
# T2 sequence (P30041 1-224): T1 sequence (P30041 1-224)
# Prdx6 = biological target: T3, Prdx6 (Mus musculus, UniProt O08709); details: PIP-2 2 μg/g in liposomes, for at least 24 h; shown previously; cited from earlier work
# T3 construct: Lungs were harvested at intervals between 4 and 72 h after the PIP-2 administration, homogenized, and analyzed for Prdx6-PLA2 activity; from tissue; host or cells: mouse lung homogenate (wild type mice)
# T3 sequence (O08709 1-224): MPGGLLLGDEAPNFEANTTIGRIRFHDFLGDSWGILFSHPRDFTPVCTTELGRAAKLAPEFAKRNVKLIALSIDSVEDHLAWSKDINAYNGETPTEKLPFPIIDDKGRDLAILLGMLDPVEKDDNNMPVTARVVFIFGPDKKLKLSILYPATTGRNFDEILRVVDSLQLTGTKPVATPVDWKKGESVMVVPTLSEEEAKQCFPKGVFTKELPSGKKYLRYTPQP
# [2] = test system: mice, intraperitoneal LPS; assay: Intraperitoneal LPS (15 μg/g) model of ALI with systemic sepsis: survival; details: LPS 15 μg/g IP
# Protocol: (§1) LPS (15 mg/g body wt) was given to all mice either by: FIG. 7A: intratracheal (IT) or FIG. 7B: intraperitoneal (IP) injection. PIP-2 in liposomes or placebo (liposomes alone) was administered intravenously (IV) 12 h after LPS (this is treatment time zero) and then at 12 or 24 h intervals for a total of 5 doses as indicated by the arrows. FIG. 7A: PIP-2 at 2 μg/g body wt; N=14 for each group. FIG. 7B: PIP-2 at 2 or 20 μg/g body wt.; Placebo group, n=8; PIP-2 2 mg group, n=7; PIP-2 20 mg group, n=10.
# (§2) Anesthesized mice were administered LPS (either 5 or 15 μgig body weight) in 20 μl saline that was instilled into the lung through an endotracheal catheter placed at the level of the tracheal carina. […] PIP-2 in liposomes was suspended in 20 μl saline for IV or IT injection. For studies to evaluate the effect of PIP-2 at zero time, LPS administration was followed by liposomes±PIP-2 also given by IT instillation. For studies to evaluate the effect of PIP-2 administered at later times after LPS, the liposomes±PIP-2 were given by injection into a retinal artery. This shift in route of administration was used to minimize damage to the mouse trachea that could occur with repeated tracheostomy and lead to untoward effects on the lung. […] We gave the second dose of PIP-2 at 12 h to be certain of maximal coverage and then went to every 24 h for PIP-2 administration. For the model of sepsis, LPS (15 μg/g body wt.) in 20 μl saline was injected intraperitoneally and mice were treated with IV PIP-2 at either 2 or 20 μg/g body wt; note that the initial dose of PIP-2 for this sepsis model was IV, not IT. We used the same times of PIP-2 administration in the sepsis model as were used for the IT LPS model. After recovery from anesthesia, all mice were maintained in the vivarium with access ad lib to food and water.
# We next evaluated the effect of PIP-2 in mice given LPS (15 μg LPS/g body wt.) by the intraperitoneal route as a model for ALI associated with systemic sepsis.
# mice, high dose IT LPS = assay: High dose intratracheal LPS (15 μg/g): survival and lung injury of survivors
# Protocol: as §1, §2
# At the end of each experiment with IT LPS (at either 24 or 120 h), surviving mice were sacrificed by exsanguination under anesthesia. Lungs in situ were cleared of blood by perfusion through the pulmonary artery and then were lavaged through the trachea with saline. The lung was then removed from the thorax for tissue assays. We evaluated the effect of LPS on lung injury by measuring the number of nucleated cells and the protein content in the lung bronchoalveolar lavage fluid (BALf), the lung wet to dry lung weight ratio using the left upper lobe of lung, and thiobarbituric-acid reactive products (TBARS), 8-isoprostanes, and protein carbonyls in the lung homogenate to determine the oxidation of lung tissue lipid and protein components. For studies of mouse mortality, survival plots were constructed using the Kaplan-Meier estimator.
# The survival data is plotted with the initial PIP-2 treatment as 0 time; LPS was administered 12 h before PIP-2 (−12 h that is off of the graph in FIG. 7A and FIG. 7B).
# Mice were instilled IT with LPS (15 μg/g wt); PIP-2 (2 μg/g body wt) in liposomes was injected (IV) at the times shown in FIG. 7A. Five of the surviving mice were sacrificed at 120 h after LPS; control mice were given liposomes but not LPS. […] Values are mean±SE for N=4 for control and N=5 for LPS+PIP-2.
# [3] = LPS 5 μg/g IT, PIP-2 2 μg/g IV @12 hr, sacrifice at 24 hrs
# [4] = LPS 5 μg/g IT, PIP-2 2 μg/g IV @16 h, sacrifice at 24 hrs
# [5] = Control: PIP in liposomes IT, no LPS
# [6] = Control: PIP in liposomes, no LPS
# [7] = LPS 5 μg/g IT, PIP-4 2 μg/g IV @12 hr, sacrifice at 24 hrs
# [8] = LPS 5 μg/g IT, PIP-4 2 μg/g IV @16 h, sacrifice at 24 hrs
sequence,measurement,setting,value
LHDFRHQIL (Inhibitory peptide.) [PIP-2],# of cells,"[1]; LPS 5 μg/g IT, PIP-2 2 μg/g IT @0 hrs, sacrifice at 24 hrs, control 0.95, LPS 8.67",0.92 ± 0.02 ×10^4/g wt
same,Wet/Dry lung weight ratio,"[1]; LPS 5 μg/g IT, PIP-2 2 μg/g IT @0 hrs, sacrifice at 24 hrs, control 5.59, LPS 8.10",5.50 ± 0.04
same,Protein carbonyls,"[1]; LPS 5 μg/g IT, PIP-2 2 μg/g IT @0 hrs, sacrifice at 24 hrs, control 5.6, LPS 16.9",5.4 ± 0.1 nmol/mg prot
same,8-Isoprostanes,"[1]; LPS 5 μg/g IT, PIP-2 2 μg/g IT @0 hrs, sacrifice at 24 hrs, control 34, LPS 101",31 ± 2 pmol/mg prot
same,protein,"[1]; LPS 5 μg/g IT, PIP-2 2 μg/g IT @0 hrs, sacrifice at 24 hrs, control 75, LPS 164",71 mg protein/g wt
same,TBARS,"[1]; LPS 5 μg/g IT, PIP-2 2 μg/g IT @0 hrs, sacrifice at 24 hrs, control 75, LPS 381",70 ± 2.1 pmol/mg prot.
same,8-Isoprostanes,[1]; [3],38 ± 1 pmol/mg prot
same,# of cells,[1]; [3],1.45 ± 0.03 ×10^4/g wt
same,Protein carbonyls,[1]; [3],6.4 ± 0.2 nmol/mg prot
same,TBARS,[1]; [3],85 ± 5.2 pmol/mg prot.
same,Wet/Dry lung weight ratio,[1]; [3],5.95 ± 0.02
same,protein,[1]; [3],84 ± 1.2 mg protein/g wt
same,8-Isoprostanes,[1]; [4],40 ± 1 pmol/mg prot
same,# of cells,[1]; [4],1.43 ± 0.2 ×10^4/g wt
same,Protein carbonyls,[1]; [4],6.4 ± 0.3 nmol/mg prot
same,TBARS,[1]; [4],89 ± 9.3 pmol/mg prot.
same,Wet/Dry lung weight ratio,[1]; [4],6.19 ± 0.06
same,protein,[1]; [4],82.0 ± 1.2 mg protein/g wt
same,protection against lung injury,"[1]; PIP-2 at 12 or 16 hours after LPS, evaluated at 24 hours",85-95%
same,"lung injury, peptide administered along with LPS (0 time)",[1],completely prevented lung injury
same,protection against lung injury,"[1]; evaluated at 24 hr after IT LPS, PIP-2 at 0, 12 or 16 h after LPS",> 75%
same,"lung injury, peptide administered at 12-16 hours after LPS",[1],prevents further injury
same,generation of H2O2,NADPH oxidase (NOX2); PIP-2 2 ug/g in liposomes,markedly inhibits
same,effect on the rate of H2O2 production,NADPH oxidase (NOX2); PIP-2 2 ug/g in saline,no effect
same,aiPLA2 Activity,"aiPLA2 activity; 0 days, no PIP-2 100",29.7 ± 2.9 nmol/min/mg prot.
same,aiPLA2 Activity,aiPLA2 activity; 30 d,31.1 ± 1.3 nmol/min/mg prot.
same,aiPLA2 Activity,aiPLA2 activity; 45 d,31.8 ± 1.0 nmol/min/mg prot.
same,aiPLA2 Activity,aiPLA2 activity; 60 d,32.8 ± 0.9 nmol/min/mg prot.
same,aiPLA2 Activity,"aiPLA2 activity; 120 d, no PIP-2 at 120 d 103",31.9 ± 2.4 nmol/min/mg prot.
same,stability as dry powder,"aiPLA2 activity; room temp., 4 months of observation",stable
same,aiPLA2 activity of human recombinant protein,recombinant hPrdx6,29.9 nmol/min/mg prot.
same,aiPLA2 activity of human recombinant Prdx6,"recombinant hPrdx6; Table 3, hPrdx6 only 99.91",26.18 nmol/min/mg prot.
same,inhibition of lung aiPLA2 activity,Prdx6,~90%
same,mice fully recovered,[2]; PIP-2 2 μg/g IV,43%
same,survival at 36 h after LPS,"[2]; PIP-2 2 μg/g IV, placebo 100% dead by 48 h",86%
same,long term survival rate,[2]; PIP-2 20 μg/g IV,70%
same,lungs of PIP-2 treated mice that survive high dose LPS,"mice, high dose IT LPS; LPS 15 μg/g IT or IP, PIP-2 2 or 20 μg/g IV, 5 days after LPS",normal lungs
same,BALf cells,"mice, high dose IT LPS; LPS 15 μg/g IT, PIP-2 2 μg/g IV in liposomes 5 doses, survivors sacrificed 120 h after LPS, control 0.95",0.96 ± 0.40 ×10^4/g body wt.
same,Wet/Dry ratio,"mice, high dose IT LPS; LPS 15 μg/g IT, PIP-2 2 μg/g IV, survivors at 120 h after LPS, control 5.59",5.34 ± 0.03
same,Protein carbonyls,"mice, high dose IT LPS; LPS 15 μg/g IT, PIP-2 2 μg/g IV, survivors at 120 h after LPS, control 5.6",5.6 ± 0.2 nmol/mg prot
same,8-Isoprostanes,"mice, high dose IT LPS; LPS 15 μg/g IT, PIP-2 2 μg/g IV, survivors at 120 h after LPS, control 34",34 ± 3 pmol/mg prot
same,BALf protein,"mice, high dose IT LPS; LPS 15 μg/g IT, PIP-2 2 μg/g IV, survivors at 120 h after LPS, control 75",78 ± 2.2 μg/g wt
same,TBARS,"mice, high dose IT LPS; LPS 15 μg/g IT, PIP-2 2 μg/g IV, survivors at 120 h after LPS, control 76",77 ± 1 pmol/mg prot
same,mortality,"mice, high dose IT LPS; LPS 15 μg/g IT, PIP-2 2 μg/g IV at 12, 24, 48, 72, 96 h after LPS, at 36 h after start of treatment, no further mortality, placebo 100% by 48 h",17%
same,survival,"mice, high dose IT LPS; LPS 15 μg/g IT, PIP-2 2 μg/g IV, at 36 h after start of treatment",83%
LYEIKHQIL (Inhibitory peptide.) [PIP-4],8-Isoprostanes,[1]; [5],34 ± 1 pmol/mg prot
same,Protein carbonyls,[1]; [5],5.8 ± 0.2 nmol/mg prot
same,TBARS,[1]; [5],76 ± 2 pmol/mg prot.
same,# of cells,[1]; [6],0.96 ± 0.03 ×10^4/g wt
same,Wet/Dry lung weight ratio,[1]; [6],5.59 ± 0.02
same,protein,[1]; [6],78 ± 2 μg protein/g wt
same,Wet/Dry lung weight ratio,"[1]; LPS 5 μg/g IT, PIP-4 2 μg/g IT @0 hrs, sacrifice at 24 hrs, LPS alone 7.40",6.1 ± 0.01
same,# of cells,"[1]; LPS 5 μg/g IT, PIP-4 2 μg/g IT @0 hrs, sacrifice at 24 hrs, LPS alone 8.5",0.95 ± 0.02 ×10^4/g wt
same,Protein carbonyls,"[1]; LPS 5 μg/g IT, PIP-4 2 μg/g IT @0 hrs, sacrifice at 24 hrs, LPS alone 16.9",5.9 ± 0.3 nmol/mg prot
same,8-Isoprostanes,"[1]; LPS 5 μg/g IT, PIP-4 2 μg/g IT @0 hrs, sacrifice at 24 hrs, LPS alone printed 1.02 ± 3",32 ± 2 pmol/mg prot
same,# of cells,[1]; [7],1.46 ± 0.25 ×10^4/g wt
same,Protein carbonyls,[1]; [7],6.4 ± 0.1 nmol/mg prot
same,protein,[1]; [7],85 ± 2 μg protein/g wt
same,# of cells,[1]; [8],1.44 ± 0.12 ×10^4/g wt
same,Protein carbonyls,[1]; [8],6.4 ± 0.1 nmol/mg prot
same,TBARS,[1]; [8],85 ± 2 pmol/mg prot.
same,Wet/Dry lung weight ratio,[1]; [8],6.12 ± 0.09
same,protein,[1]; [8],83 ± 1 μg protein/g wt
same,"lung injury, peptide administered along with LPS (0 time)",[1],prevents lung injury
same,"lung injury, peptide administered at 12-16 hours after LPS",[1],prevents further injury
same,aiPLA2 activity of human recombinant protein,recombinant hPrdx6,32.3 nmol/min/mg prot.
